Results: patent US20240190854A1, “PYRIMIDINE OR PYRIDINE DERIVATIVES USEFUL AS HCN2 MODULATORS” (King's College London, priority 2021, published 2024)
Entries after “also recorded” stand apart in the source; their conditions may differ. Structures can show the parent of a compound that is named as a salt.

Key:
HCN2 = HCN2 (Homo sapiens (Human), UniProt Q9UL51); experiment: HCN2 current assay using the Sophion Qube; type: cell-based; settings: Sophion Qube protocol; read-out: SQ HCN2 IC50
Protocol: (§1) Example 126B, Using the Sophion Qube
(§2) Solutions for recording HCN currents were:
(§3) This voltage protocol was applied every 20 seconds for the duration of the experiment. Both the vehicle (0.3% DMSO) and full block (3 mM CsCl) addition periods were applied for 10 experimental sweeps each.
(§4) The current amplitudes were measured by subtracting metric A from metric B (see FIG. 2) with inhibition calculated by normalising to the vehicle addition (0.3% DMSO) and full inhibition by 3 mM CsCl in the same well.
(§5) In total, compound was applied to the well for 600 seconds.

hERG channel = hERG channel (Homo sapiens (Human), UniProt Q12809); experiment: hERG assay using Sophion Qube; type: cell-based; settings: Sophion Qube protocol; read-out: SQ hERG IC50
Chain of hERG channel (Q12809 whole entry): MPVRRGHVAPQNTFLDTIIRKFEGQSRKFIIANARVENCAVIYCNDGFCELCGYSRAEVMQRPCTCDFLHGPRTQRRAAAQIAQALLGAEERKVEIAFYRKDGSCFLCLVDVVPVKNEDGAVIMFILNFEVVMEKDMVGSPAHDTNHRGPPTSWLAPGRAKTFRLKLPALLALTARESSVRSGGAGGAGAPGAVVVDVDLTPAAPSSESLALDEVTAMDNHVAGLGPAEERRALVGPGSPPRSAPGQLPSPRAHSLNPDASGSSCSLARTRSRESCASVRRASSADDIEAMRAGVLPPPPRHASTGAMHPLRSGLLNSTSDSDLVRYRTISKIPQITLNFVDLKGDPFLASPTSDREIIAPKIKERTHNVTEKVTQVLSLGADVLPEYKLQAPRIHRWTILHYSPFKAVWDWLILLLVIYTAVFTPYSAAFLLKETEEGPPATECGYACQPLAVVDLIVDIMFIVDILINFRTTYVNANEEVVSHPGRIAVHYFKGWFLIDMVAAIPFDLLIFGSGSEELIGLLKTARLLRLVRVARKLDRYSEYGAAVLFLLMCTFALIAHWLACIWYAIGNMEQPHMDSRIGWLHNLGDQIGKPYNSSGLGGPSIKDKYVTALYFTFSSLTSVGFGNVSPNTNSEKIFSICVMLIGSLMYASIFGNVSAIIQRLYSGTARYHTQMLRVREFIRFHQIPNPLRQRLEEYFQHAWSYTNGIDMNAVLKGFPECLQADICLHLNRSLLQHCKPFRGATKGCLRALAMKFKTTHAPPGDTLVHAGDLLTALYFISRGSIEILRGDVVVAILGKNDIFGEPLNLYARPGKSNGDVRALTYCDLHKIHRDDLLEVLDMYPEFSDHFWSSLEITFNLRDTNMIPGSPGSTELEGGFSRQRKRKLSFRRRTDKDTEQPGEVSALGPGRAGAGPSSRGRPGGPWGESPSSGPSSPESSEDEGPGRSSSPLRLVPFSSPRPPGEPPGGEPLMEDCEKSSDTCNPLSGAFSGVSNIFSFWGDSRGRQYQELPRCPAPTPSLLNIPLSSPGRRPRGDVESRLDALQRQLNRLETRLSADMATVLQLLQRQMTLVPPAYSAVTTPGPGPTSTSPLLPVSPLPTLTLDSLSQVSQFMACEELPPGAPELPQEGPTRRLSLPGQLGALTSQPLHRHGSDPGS
Protocol: Example 127B, Using Sophion Qube
Solutions for recording hERG currents were:
This voltage protocol was applied every 15 seconds for the duration of the experiment. Both the vehicle and 1st compound addition periods were applied for 10 sweeps. The 2nd compound addition period was applied for 20 sweeps. The compound concentration was added to the test well twice to assure complete exchange of the external buffer with the test compound. In total, compound was applied to the well for 450 seconds.

hNav1.5 = hNav1.5 (Homo sapiens (Human), UniProt Q14524)
Chain of hNav1.5 (Q14524 whole entry): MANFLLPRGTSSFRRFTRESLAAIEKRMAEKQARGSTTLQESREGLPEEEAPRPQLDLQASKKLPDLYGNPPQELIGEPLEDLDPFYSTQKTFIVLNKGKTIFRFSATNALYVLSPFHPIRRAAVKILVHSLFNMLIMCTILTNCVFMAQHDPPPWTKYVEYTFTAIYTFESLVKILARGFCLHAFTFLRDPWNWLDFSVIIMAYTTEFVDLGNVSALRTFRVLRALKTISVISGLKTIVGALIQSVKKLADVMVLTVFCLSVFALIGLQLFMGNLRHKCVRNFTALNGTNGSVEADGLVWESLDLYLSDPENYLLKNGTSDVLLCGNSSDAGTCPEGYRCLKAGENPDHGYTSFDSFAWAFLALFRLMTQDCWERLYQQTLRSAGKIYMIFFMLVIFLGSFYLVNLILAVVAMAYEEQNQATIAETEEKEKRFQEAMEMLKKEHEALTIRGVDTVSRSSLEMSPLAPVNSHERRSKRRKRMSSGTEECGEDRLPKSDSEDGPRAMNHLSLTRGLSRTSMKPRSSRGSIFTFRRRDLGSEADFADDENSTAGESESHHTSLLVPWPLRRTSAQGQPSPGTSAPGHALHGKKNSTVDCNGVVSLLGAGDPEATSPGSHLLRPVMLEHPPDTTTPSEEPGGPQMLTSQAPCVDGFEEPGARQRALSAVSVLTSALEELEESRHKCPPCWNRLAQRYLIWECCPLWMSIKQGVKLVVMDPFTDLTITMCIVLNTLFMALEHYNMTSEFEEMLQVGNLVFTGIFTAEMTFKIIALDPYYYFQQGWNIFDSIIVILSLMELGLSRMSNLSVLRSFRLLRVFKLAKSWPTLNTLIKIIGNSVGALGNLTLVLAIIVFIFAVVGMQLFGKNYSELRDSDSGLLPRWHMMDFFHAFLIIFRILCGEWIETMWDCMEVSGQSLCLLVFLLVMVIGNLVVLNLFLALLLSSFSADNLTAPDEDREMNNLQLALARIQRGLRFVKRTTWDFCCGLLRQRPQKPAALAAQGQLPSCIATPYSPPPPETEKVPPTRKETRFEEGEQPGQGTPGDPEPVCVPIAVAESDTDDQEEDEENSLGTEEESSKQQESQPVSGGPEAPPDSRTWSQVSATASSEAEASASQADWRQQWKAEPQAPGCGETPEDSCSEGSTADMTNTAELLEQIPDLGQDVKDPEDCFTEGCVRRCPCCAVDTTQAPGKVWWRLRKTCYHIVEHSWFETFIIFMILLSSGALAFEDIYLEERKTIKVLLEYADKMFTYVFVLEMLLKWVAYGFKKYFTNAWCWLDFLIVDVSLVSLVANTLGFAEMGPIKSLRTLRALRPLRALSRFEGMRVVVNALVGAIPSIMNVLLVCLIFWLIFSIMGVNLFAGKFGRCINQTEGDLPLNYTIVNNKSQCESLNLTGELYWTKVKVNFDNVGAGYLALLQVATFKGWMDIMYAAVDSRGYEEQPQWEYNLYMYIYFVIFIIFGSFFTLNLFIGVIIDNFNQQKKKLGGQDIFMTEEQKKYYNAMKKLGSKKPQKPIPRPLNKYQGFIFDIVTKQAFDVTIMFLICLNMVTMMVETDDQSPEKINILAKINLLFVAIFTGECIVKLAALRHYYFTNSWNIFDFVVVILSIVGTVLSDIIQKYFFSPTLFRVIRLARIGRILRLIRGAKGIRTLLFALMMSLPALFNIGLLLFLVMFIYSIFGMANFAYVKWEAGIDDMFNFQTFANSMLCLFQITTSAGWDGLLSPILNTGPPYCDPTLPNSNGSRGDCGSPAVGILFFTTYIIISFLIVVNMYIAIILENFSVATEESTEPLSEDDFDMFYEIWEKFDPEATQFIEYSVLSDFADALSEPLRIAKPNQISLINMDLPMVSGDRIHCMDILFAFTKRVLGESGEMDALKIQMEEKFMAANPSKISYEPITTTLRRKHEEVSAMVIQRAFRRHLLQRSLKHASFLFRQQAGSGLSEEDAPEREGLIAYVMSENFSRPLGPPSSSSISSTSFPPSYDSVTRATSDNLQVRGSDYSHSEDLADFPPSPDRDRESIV
Protocol: The cells were held at −100 mV followed by a depolarising step to −10 mV for 100 milliseconds before stepping back to −100 mV, this represents 1 experimental sweep.
For tonic block (0.1 Hz), the peak currents evoked by the step to −10 mV were measured for the analysis of the percentage inhibition by test compounds. For use-dependent block (4 Hz), the peak current evoked at the 20th depolarising step to −10 mV was measured for the analysis of the percentage inhibition by test compounds. Peak currents were first normalised to the vehicle addition (0.3% DMSO) in the same well.

HCN4 = HCN4 (Homo sapiens (Human), UniProt Q9Y3Q4); experiment: HCN4 current assay using the Sophion Qube; type: cell-based; settings: Sophion Qube protocol; read-out: SQ HCN4 IC50
Protocol: as §1, §2, §3, §4, §5

MDR1 (P-glycoprotein) = MDR1 (P-glycoprotein) (Homo sapiens (Human), UniProt P08183); experiment: in vitro; settings: dog, MDCK-MDR1, pH 7.4
Protocol: Test compounds were added (10 μM, 0.1% DMSO final, n=2) to donor compartments of the Transwell plate assembly in assay buffer (Hanks balanced salt solution supplemented with 25 mM HEPES, adjusted to pH 7.4) for both apical to basolateral (A>B) and basolateral to apical (B>A) measurements. A parallel series of incubations were performed in the presence of the transporter inhibitor elacridar (5 μM) which was added to both compartments in the transwell plate. Incubations were performed at 37° C., with samples removed from both donor and acceptor chambers at T=0 and 1 hour for recovery assessment and compound analysed by mass spectrometry (LC-MS/MS), including an analytical internal standard.
Apparent permeability (Papp) values were determined from the relationship:
Where V is the volume of each Transwell compartment (apical 125 μL, basolateral 600 μL), and concentrations are the relative MS responses for compound (normalized to internal standard) in the donor chamber before incubation and acceptor chamber at the end of the incubation.
Area=area of cells exposed for drug transfer (0.33 cm2).
Efflux ratios (Papp B>A/Papp A>B) were calculated for each compound from the mean Papp values in each direction. […] The efflux ratios were also calculated in the same way from the runs carried out in the presence of the inhibitor. The net flux is the ratio of the efflux in the absence of inhibitor to that in the presence of inhibitor.
Lucifer Yellow (LY) was added to the apical buffer in all wells to assess viability of the cell layer.
Compound recovery from the wells was determined from MS responses (normalized to internal standard) in donor and acceptor chambers at the end of incubation compared to response in the donor chamber pre-incubation.

HCN1 = HCN1 (Homo sapiens (Human), UniProt O60741); experiment: HCN1 current assay using the Sophion Qube; type: cell-based; settings: Sophion Qube protocol; read-out: SQ HCN1 IC50
Chain of HCN1 (O60741 whole entry, species assumed): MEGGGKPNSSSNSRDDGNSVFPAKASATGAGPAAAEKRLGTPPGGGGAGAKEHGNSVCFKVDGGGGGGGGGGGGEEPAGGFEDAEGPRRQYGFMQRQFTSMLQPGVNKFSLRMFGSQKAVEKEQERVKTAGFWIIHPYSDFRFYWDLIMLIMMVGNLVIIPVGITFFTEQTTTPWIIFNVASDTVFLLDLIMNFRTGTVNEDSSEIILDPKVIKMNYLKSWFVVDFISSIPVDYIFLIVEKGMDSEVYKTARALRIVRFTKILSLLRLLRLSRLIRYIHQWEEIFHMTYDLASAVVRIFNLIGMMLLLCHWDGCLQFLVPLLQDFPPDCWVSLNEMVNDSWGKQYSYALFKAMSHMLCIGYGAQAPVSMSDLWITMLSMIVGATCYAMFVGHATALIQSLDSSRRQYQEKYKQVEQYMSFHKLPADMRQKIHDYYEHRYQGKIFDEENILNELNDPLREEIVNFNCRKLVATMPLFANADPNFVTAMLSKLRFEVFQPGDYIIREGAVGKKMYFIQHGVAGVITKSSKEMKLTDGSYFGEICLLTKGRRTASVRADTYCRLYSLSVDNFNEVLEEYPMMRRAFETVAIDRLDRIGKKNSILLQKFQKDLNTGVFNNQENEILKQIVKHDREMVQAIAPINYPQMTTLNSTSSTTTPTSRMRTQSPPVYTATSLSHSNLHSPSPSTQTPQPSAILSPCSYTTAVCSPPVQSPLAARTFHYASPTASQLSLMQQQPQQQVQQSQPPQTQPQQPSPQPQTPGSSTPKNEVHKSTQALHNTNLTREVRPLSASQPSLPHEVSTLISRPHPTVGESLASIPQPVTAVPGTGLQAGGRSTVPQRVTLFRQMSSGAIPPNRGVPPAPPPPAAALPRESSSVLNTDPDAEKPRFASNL
Protocol: as §1, §2, §3, §4, §5

[1] = tested on: guinea pigs, noise-exposure tinnitus; experiment: GPIAS test, noise-exposure tinnitus model; type: in vivo, guinea pig
Excerpt: (§6) Tinnitus in guinea pigs was monitored using the gap induced inhibition of the acoustic startle (GPIAS) test (see FIG. 5). GPIAS is reduced when tinnitus was present; see Berger, J. I. et al. Effects of the cannabinoid CB1 agonist ACEA on salicylate ototoxicity, hyperacusis and tinnitus in guinea pigs. Hearing research, (2017), and Coomber, B. et al. Neural changes accompanying tinnitus following unilateral acoustic trauma in the guinea pig. Eur J Neurosci 40, 2427-2441, (2014).
(§7) In FIG. 5, sound stimulus (above) and corresponding pinna reflex (below) are shown in freely moving guinea pigs. Stimuli with no gap and gap are presented in a randomised order. Traces contaminated by movement (the upper trace in “no gap”) were removed before analysis.
The noise-exposure model is more clinically relevant than the salicylate model, as it parallels a common cause of tinnitus in humans. A second important point is that it is long-term, while tinnitus induced by salicylate is rapidly reversed following salicylate exposure.

[2] = tested on: guinea pigs, salicylate-induced tinnitus; experiment: GPIAS test, short-term salicylate tinnitus model; type: in vivo, guinea pig; settings: salicylate 350 mg/kg i.p.; ivabradine 5 mg/kg s.c.
Excerpt: as §6, §7
Tinnitus was induced within 1-2 hours in humans by high doses of salicylate. A similar short-term tinnitus model was implemented in guinea pigs by i.p. injection of salicylate. In all animals, salicylate caused behavioural inhibition of GPIAS (see bar 2 in FIG. 6).
Salicylate (350 mg/kg, i.p.) impairs behavioural gap detection 2 h after salicylate administration (see bar 2 in of FIG. 6). Gap detection was restored by blocking HCN channels with ivabradine (5 mg/kg, s.c.).

mice, normal hearing = type: in vivo; settings: adult mice; Example 29 at 20 mg/kg ip
Black6 mice = settings: mouse, in vivo; cited from earlier work
[3] = CNS penetration: plasma, brain and auditory nerve levels; type: in vivo; settings: guinea pig, auditory nerve, other: injection; 30 min after injection, n=2, preliminary; read-out: Ratio of total concentrations auditory nerve : plasma
Protocol: Ivabradine in guinea pig plasma, brain (somatosensory cortex) and auditory nerve were assayed at 30 min after injection, the time used in Example 130.

[4] = tested on: mouse neuropathic pain model (partial sciatic nerve ligation); experiment: Mouse neuropathic pain model (PSNL), von Frey filament; type: in vivo; settings: for Mechanical analgesia (von Frey): day 5 after PSNL
Protocol: The model used was analogous to the model described in Seltzer Z, Dubner R, & Shir Y (1990), A novel behavioural model of neuropathic pain disorders produced in rats by partial sciatic nerve injury, Pain 43: 205-218). […] Sci Transl Med 9: eaam6072.
The mechanical pain threshold was measured by manual von Frey filament applied to hind paw on the operated side, using the “up-down” method.
Mechanical pain threshold was measured as in Example 133 1 day before and 8 days after partial sciatic nerve ligation (PSNL) neuropathic pain induction. The test compound was administered at a low dose of 0.2 mg/kg every two hours with a control arm of vehicle only injections.
Mechanical pain threshold was measured as in Example 133 1 day before and 5-8 days after partial sciatic nerve ligation (PSNL) neuropathic pain induction. The test compound was administered at a dose of 0.5 mg/kg twice-daily at 8 hour intervals with a control arm of vehicle only injections, and mechanical pain threshold was measured 4 hours after the first injection.

[5] = tested on: mouse neuropathic pain model (partial sciatic nerve ligation); experiment: Mouse neuropathic pain model, paw pressure (Randall Sellito test); type: in vivo

Chain of HCN2 (Q9UL51 whole entry): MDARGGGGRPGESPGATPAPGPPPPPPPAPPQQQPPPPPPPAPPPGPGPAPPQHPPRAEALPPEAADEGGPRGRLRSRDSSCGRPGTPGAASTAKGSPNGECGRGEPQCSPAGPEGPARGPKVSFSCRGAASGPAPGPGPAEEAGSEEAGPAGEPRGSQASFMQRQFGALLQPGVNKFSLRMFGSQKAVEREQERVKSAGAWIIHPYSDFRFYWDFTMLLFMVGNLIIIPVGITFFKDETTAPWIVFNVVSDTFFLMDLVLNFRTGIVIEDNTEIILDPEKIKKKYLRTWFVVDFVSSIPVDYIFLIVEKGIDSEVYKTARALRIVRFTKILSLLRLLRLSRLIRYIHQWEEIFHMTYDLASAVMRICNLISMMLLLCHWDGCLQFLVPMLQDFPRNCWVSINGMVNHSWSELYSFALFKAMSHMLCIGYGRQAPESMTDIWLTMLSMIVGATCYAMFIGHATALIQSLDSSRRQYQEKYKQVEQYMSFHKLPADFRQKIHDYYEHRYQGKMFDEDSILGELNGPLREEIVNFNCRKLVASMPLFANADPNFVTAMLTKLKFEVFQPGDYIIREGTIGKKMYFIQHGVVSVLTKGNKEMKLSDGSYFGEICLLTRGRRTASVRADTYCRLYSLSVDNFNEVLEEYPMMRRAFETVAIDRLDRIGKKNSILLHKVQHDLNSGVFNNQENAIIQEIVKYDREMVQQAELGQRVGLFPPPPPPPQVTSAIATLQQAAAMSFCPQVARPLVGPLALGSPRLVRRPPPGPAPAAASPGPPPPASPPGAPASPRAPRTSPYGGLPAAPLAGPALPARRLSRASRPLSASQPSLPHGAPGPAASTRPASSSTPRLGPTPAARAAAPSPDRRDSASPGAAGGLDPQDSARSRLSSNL

SMILES	IC50 (HCN2) [µM]	IC50 (hERG channel) [µM]	IC50 (hNav1.5) [µM]	IC50 (HCN4) [µM]	efflux ratio at 1 h, 10 μM (MDR1 (P-glycoprotein))	IC50 (HCN1) [µM]	further results
Cc1ccc(S(C)(=O)=O)nc1C[C@H](N)c1ccccc1-c1noc2cc(Cl)ccc12 [Example 23, (S)-1-[2-(6-Chlorobenzo[d]isoxazol-3-yl)phenyl]-2-(3-methyl-6-methylsulfonylpyridin-2-yl)ethan-1-amine hydrochloride]	1.7	1.2	13.9				
Cc1ccc2c(-c3ccccc3[C@@H](N)Cc3nc(S(C)(=O)=O)ccc3C)noc2c1 [Example 19, (S)-2-(3-Methyl-6-methylsulfonylpyridin-2-yl)-1-[2-(6-methylbenzo[d]isoxazol-3-yl)phenyl]ethan-1-amine hydrochloride]	1.4	1.3	11.5	13.1	12.4	2.9	
CS(=O)(=O)c1ccc(F)c(C[C@H](N)c2ccccc2-c2noc3cc(Cl)ccc23)n1 [Example 13, (S)-1-[2-(6-Chlorobenzo[d]isoxazol-3-yl)phenyl]-2-(3-fluoro-6-methylsulfonylpyridine-2-yl)ethan-1-amine hydrochloride]	2.6	1.4	15.1	> 30	6.2	3.2	
Cc1ccc(S(C)(=O)=O)nc1C[C@H](N)c1ccccc1-c1noc2cc(F)ccc12 [Example 24, (S)-1-[2-(6-Fluorobenzo[d]isoxazol-3-yl)phenyl]-2-(3-methyl-6-methylsulfonylpyridin-2-yl)ethan-1-amine hydrochloride]	1.3	3.4	22.4	7.8	10.4	4.2	
COc1cc2c(cc1OC)CC(=O)N(CCCN(C)C[C@H]1Cc3cc(OC)c(OC)cc31)CC2 [ivabradine, Ivabradine]							Effect on GPIAS in noise-exposed guinea pigs showing no behavioural tinnitus ([1]; control experiments, n=3): without effect on GPIAS; also recorded: without effect on gap detection; Effect on reduced GPIAS after noise exposure ([1]; guinea pigs with impaired GPIAS, 5 mg/kg s.c.): rapidly and completely reversed; also recorded: fully restores GPIAS; Effect on GPIAS (behavioural gap detection) [2]: reversed GPIAS; also recorded: restored; Effect on ABR threshold or latency (mice, normal hearing): no significant difference; Therapeutic window between analgesia and bradycardia (Black6 mice): little therapeutic window; Kp at 30 min [3]: 0.57
CS(=O)(=O)c1ccc(F)c(C[C@H](N)c2ccccc2-c2noc3ccc(F)cc23)n1 [Example 22, (S)-1-[2-(5-Fluorobenzo[d]isoxazol-3-yl)phenyl]-2-(3-fluoro-6-methylsulfonylpyridin-2-yl)ethan-1-amine hydrochloride]		5.7	24.1	20.8		27.4	
Cc1ccc2c(-c3ccccc3[C@@H](N)Cc3nc(S(C)(=O)=O)ccc3F)noc2c1 [Example 11, (S)-2-(3-Fluoro-6-methylsulfonylpyridine-2-yl)-1-[2-(6-methylbenzo[d]isoxazol-3-yl)phenyl]ethan-1-amine hydrochloride]	3.2	4.7	21.4	30	5.2		
CS(=O)(=O)c1ccc(F)c(C[C@H](N)c2ccccc2-c2noc3cc(F)ccc23)n1 [Example 20, (S)-2-(3-Fluoro-6-methylsulfonylpyridin-2-yl)-1-[2-(6-fluorobenzo[d]isoxazol-3-yl)phenyl]ethan-1-amine hydrochloride]	3.1	2.9	28.1	> 30	6.2	16.9	
CS(=O)(=O)c1ccc(F)c(C[C@H](N)c2ccccc2-c2noc3ccccc23)n1 [Example 5, (S)-1-[2-(Benzo[d]isoxazol-3-yl)phenyl]-2-[3-fluoro-6-(methylsulfonyl)pyridine-2-yl]ethan-1-amine hydrochloride]							Mechanical analgesia (von Frey) ([4]; 0.1 mg/kg i.p.): partial analgesia; Mechanical analgesia (von Frey), first dose ([4]; 0.2 mg/kg every two hours, first dose): only partial analgesia; Mechanical analgesia (von Frey), subsequent doses ([4]; 0.2 mg/kg every two hours, subsequent doses): increase in analgesia towards full analgesia; Mechanical analgesia (von Frey) ([4]; 0.5 mg/kg i.p.): full analgesia; Mechanical analgesia (von Frey), successive doses over 4 days ([4]; 0.5 mg/kg twice-daily at 8 hour intervals, 4 days): full and sustained analgesia; Mechanical analgesia (von Frey), 4 hours after first injection ([4]; 0.5 mg/kg twice-daily at 8 hour intervals, first injection): little analgesia; ED50 ([4]; Mus musculus, ip, maximal analgesia, n=3-4 mice, read-out: Analgesic ED50): 0.17 mg/kg; Analgesia, paw pressure (Randall Sellito) ([5]; 0.1 mg/kg i.p.): partial analgesia; Analgesia, paw pressure (Randall Sellito) ([5]; 0.5 mg/kg i.p.): full analgesia
N#Cc1ccc2c(-c3ccccc3[C@@H](N)Cc3nc(Br)ccc3F)noc2c1 [Example 17, (S)-2-(6-Bromo-3-fluoropyridine-2-yl)-1-[2-(6-cyanobenzo[d]isoxazol-3-yl)phenyl]-ethan-1-amine hydrochloride]	5.8	3.1					
CS(=O)(=O)c1ccc(F)c(C[C@H](N)c2ccccc2-c2noc3c(F)cccc23)n1 [Example 26, (S)-1-[2-(7-Fluorobenzo[d]isoxazol-3-yl)phenyl]-2-(3-fluoro-6-methylsulfonylpyridin-2-yl)ethan-1-amine hydrochloride]	1.8	15.1	19.2	> 30	4.2	25.7	
